Measurements: ChEMBL document CHEMBL4616590, “Therapeutic significance of β-glucuronidase activity and its inhibitors: A review” (Eur J Med Chem, 2020)

How the values were obtained:
[1] = Inhibition of bovine liver beta-glucuronidase using 4-nitrophenyl b-D-glucuronopyranoside as substrate after 30 mins; set-up: species or system Bos taurus
[2] = Inhibition of bovine liver beta-glucuronidase using 4-nitrophenyl beta-D-glucuronopyranoside as substrate preincubated for 30 mins followed by substrate addition measured after 10 to 20 mins by e Lineweaver-Burk plot analysis; set-up: species or system Bos taurus
Beta-glucuronidase [3] = target: T1, Beta-glucuronidase (Escherichia coli (strain K12), UniProt P05804); test: Inhibition of Escherichia coli beta-glucuronidase
T1 sequence (P05804 whole entry): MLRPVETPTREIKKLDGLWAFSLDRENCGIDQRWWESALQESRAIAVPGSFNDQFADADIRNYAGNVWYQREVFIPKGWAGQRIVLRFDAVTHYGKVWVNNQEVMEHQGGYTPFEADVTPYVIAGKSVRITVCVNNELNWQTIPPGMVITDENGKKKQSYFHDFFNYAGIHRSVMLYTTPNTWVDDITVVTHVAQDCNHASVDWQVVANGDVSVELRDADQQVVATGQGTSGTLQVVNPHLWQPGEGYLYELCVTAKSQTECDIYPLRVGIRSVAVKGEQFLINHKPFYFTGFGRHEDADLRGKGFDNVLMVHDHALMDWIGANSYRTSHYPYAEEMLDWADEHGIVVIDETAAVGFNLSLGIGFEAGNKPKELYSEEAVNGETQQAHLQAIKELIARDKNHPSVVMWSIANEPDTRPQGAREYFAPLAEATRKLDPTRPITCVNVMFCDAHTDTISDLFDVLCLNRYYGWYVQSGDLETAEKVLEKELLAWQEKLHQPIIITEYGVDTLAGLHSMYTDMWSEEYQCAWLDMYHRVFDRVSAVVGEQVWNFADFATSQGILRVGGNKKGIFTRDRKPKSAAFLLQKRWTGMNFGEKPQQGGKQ

Beta-glucuronidase [4] = target: T2, Beta-glucuronidase (Rattus norvegicus, UniProt P06760); test: Inhibition of rat liver beta-glucuronidase
T2 sequence (P06760 whole entry): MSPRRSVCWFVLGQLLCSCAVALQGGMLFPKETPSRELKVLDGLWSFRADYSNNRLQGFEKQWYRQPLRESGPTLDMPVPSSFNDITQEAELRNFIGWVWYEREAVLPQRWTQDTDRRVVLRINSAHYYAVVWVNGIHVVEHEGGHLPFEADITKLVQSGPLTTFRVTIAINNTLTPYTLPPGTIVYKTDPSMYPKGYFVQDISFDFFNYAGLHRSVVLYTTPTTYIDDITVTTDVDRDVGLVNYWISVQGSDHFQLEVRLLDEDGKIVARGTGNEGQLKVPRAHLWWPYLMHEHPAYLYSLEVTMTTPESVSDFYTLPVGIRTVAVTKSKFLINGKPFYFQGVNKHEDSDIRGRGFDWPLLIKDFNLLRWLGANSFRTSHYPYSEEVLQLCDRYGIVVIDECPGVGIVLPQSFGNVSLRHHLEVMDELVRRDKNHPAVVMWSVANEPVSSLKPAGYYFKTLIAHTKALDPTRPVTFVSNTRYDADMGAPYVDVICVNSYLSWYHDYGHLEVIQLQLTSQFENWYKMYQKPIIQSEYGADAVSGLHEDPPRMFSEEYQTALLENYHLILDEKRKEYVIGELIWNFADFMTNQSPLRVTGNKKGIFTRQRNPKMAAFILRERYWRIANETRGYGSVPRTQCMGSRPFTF

[5] = Inhibition of Escherichia coli K-12 beta-glucuronidase using PNPG as substrate preincubated for 5 mins followed by substrate addition measured after 30 mins
Beta-glucuronidase [6] = target: T3, Beta-glucuronidase (Homo sapiens, UniProt P08236); test: Inhibition of beta-glucuronidase (unknown origin) using p-nitrophenyl-beta-d-glucuronide as substrate after 30 mins
T3 sequence (P08236 whole entry): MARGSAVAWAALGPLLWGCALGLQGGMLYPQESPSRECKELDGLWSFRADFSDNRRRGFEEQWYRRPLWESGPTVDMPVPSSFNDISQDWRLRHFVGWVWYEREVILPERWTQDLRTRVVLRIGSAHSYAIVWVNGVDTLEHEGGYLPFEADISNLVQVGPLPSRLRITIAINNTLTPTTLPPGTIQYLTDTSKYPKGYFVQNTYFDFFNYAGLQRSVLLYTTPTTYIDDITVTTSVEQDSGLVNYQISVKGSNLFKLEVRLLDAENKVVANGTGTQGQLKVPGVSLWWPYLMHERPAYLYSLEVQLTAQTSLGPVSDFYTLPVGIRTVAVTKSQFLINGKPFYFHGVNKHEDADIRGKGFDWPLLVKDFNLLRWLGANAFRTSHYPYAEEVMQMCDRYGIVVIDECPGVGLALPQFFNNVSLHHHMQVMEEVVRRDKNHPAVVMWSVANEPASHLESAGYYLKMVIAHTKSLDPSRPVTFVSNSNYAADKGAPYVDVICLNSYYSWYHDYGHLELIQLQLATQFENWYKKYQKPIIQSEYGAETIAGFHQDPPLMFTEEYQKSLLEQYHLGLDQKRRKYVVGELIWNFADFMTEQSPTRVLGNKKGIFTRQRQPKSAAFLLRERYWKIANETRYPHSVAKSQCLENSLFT

Beta-glucuronidase [7] = target: T1, Beta-glucuronidase; test: Inhibition of Escherichia coli beta-glucuronidase using p-nitrophenyl-beta-D-glucuronide as substrate
Beta-glucuronidase [8] = target: T4, Beta-glucuronidase (Mus musculus, UniProt P12265); test: In-vivo inhibition of beta-glucuronidase in BALB/CJ mouse at 10 ug administered as twice daily; assay type: functional
T4 sequence (P12265 whole entry): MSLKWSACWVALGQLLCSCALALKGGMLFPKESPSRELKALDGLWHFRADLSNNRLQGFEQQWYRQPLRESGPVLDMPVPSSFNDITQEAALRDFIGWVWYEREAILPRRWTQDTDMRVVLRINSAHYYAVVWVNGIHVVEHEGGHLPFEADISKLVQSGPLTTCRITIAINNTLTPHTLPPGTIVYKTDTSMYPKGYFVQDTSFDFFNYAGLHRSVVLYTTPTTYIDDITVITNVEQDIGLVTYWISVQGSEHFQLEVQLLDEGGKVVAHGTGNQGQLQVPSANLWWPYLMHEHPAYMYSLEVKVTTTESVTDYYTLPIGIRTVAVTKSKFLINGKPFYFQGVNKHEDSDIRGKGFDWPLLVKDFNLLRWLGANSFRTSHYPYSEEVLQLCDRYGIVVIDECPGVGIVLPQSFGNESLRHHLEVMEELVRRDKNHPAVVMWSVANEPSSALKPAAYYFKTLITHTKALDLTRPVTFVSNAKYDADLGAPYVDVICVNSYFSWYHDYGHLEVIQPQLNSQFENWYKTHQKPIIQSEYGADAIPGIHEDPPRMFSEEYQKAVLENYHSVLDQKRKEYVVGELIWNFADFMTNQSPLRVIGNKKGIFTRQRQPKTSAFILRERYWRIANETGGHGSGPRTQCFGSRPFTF

[9] = Half life in BALB/CJ mouse at 10 ug administered as twice daily; assay type: ADME; conditions: in vivo
[10] = Inhibition of bacterial beta-glucuronidase using p-nitrophenyl-beta-D-glucuronide as substrate after 1 hr; set-up: species or system Bacteria
[11] = target: T5, Beta-glucuronidase (Mus musculus) (UniProt P12265); test: In vivo inhibition of beta-glucuronidase in OF1 mouse at 10 mg/kg, po after 8 days relative to control; assay type: functional, organism-based
T5 sequence (whole entry): T4 sequence (P12265 whole entry)

[12] = target: T6, Beta-glucuronidase (Homo sapiens) (UniProt P08236); test: Potency index, ratio of Silymarin IC50 to test compound IC50 for beta-glucuronidase (unknown origin)
T6 sequence (whole entry): T3 sequence (P08236 whole entry)

[13] = Inhibition of Staphylococcus aureus beta-glucuronidase
[14] = Inhibition of Clostridium perfringens beta-glucuronidase
[15] = Inhibition of Staphylococcus pasteuri beta-glucuronidase
[16] = target: T6, Beta-glucuronidase (Homo sapiens); test: Inhibition of whole human gut bacterial beta-glucuronidase relative to control; conditions: concentration not given here
[17] = target: T6, Beta-glucuronidase (Homo sapiens); test: Inhibition of beta-glucuronidase (unknown origin) relative to control; conditions: concentration not given here
[18] = Inhibition of bovine liver beta-glucuronidase using p-nitrophenyl-beta-d-glucuronide as substrate after 30 mins by spectrophotometric analysis; set-up: species or system Bos taurus
[19] = Inhibition of bovine liver beta-glucuronidase using p-nitrophenyl-beta-D-glucuronide as substrate after 30 mins; set-up: species or system Bos taurus
[20] = target: T6, Beta-glucuronidase (Homo sapiens); test: Inhibition of beta-glucuronidase (unknown origin) at 1 mM relative to control
[21] = Inhibition of bacterial beta-glucuronidase; set-up: species or system Bacteria
[22] = target: T6, Beta-glucuronidase (Homo sapiens); conditions: 10 mg/ml
[23] = Selectivity index, ratio of IC50 for beta-glucuronidase (unknown origin) to IC50 for Escherichia coli beta-glucuronidase
[24] = Inhibition of bovine liver beta-glucuronidase; set-up: species or system Bos taurus
[25] = Inhibition of bacterial beta-glucuronidase using 4-nitrophenyl beta-D-glucuronopyranoside as substrate; set-up: species or system Bacteria
[26] = target: T7, Beta-glucuronidase (Rattus norvegicus) (UniProt P06760); test: Inhibition of rat neutrophils beta-glucuronidase at 100 uM relative to control
T7 sequence (whole entry): T2 sequence (P06760 whole entry)

[27] = target: Beta-glucuronidase (Escherichia coli (strain K12)) (UniProt P05804); test: Inhibition of Escherichia coli beta-glucuronidase at 1 mM relative to control
Sequence of Beta-glucuronidase (Escherichia coli (strain K12)) (P05804 whole entry, looked up): as the sequence (P05804 whole entry) above

[28] = target: T5, Beta-glucuronidase (Mus musculus); test: In-vivo inhibition of ICR mouse beta-glucuronidase at 20 mg/kg, sc after 10 weeks relative to DMH alone; assay type: functional, organism-based
[29] = target: T5, Beta-glucuronidase (Mus musculus); test: In-vivo inhibition of ICR mouse beta-glucuronidase at 60 mg/kg, sc after 10 weeks relative to DMH alone; assay type: functional, organism-based

## O=C(O)[C@@H]1[C@@H](O)[C@H](O)[C@@H](O)c2nnnn21
[1]
  IC50: 25 µM
[2]
  Ki: 25 nM

## O=c1c(-c2ccc(O)cc2)coc2cc(O)ccc12 [DAIDZEIN]
Beta-glucuronidase [3]
  IC50: 1610 µM
Beta-glucuronidase [4]
  IC50: 1.97 mM

## CC1(C)[C@@H](O[C@H]2O[C@H](C(=O)O)[C@@H](O)[C@H](O)[C@H]2O[C@@H]2O[C@H](C(=O)O)[C@@H](O)[C@H](O)[C@H]2O)CC[C@]2(C)[C@H]3C(=O)C=C4[C@@H]5C[C@@](C)(C(=O)O)CC[C@]5(C)CC[C@@]4(C)[C@]3(C)CC[C@@H]12 [GLYCYRRHIZIN]
Beta-glucuronidase [3]
  IC50: 12.1 µM
Beta-glucuronidase [4]
  IC50: 0.0972 mM

## O=c1cc(-c2ccc(O)cc2)oc2cc(O)c(O)c(O)c12 [SCUTELLAREIN]
[5]
  IC50: 5.76 µM

## CC(=O)c1ccc(Nc2cc(C)nc3ccccc23)cc1
Beta-glucuronidase [6]
  IC50: 4 µM

## CC1(C)CCC2(C(=O)O)CC[C@]3(C)C(=CC[C@@H]4[C@@]5(C)[C@H](O)C[C@H](O)[C@@](C)(CO)[C@@H]5CC[C@]43C)[C@@H]2C1 (stereo partly specified)
Beta-glucuronidase [7]
  IC50: 63 µM

## CCOc1ccc(NC(=S)N(CCO)Cc2cc3cc(C)cc(C)c3[nH]c2=O)cc1
Beta-glucuronidase [8]
  IC50: 164 nM
[9]
  half-life: < 60 min

## CNc1ccc2c(n1)sc1c(N3CCNCC3)nc(NC)nc12
[10]
  IC50: 80 nM

## C[C@]12C=CC(=O)C=C1CC[C@H]1[C@@H]3C[C@@H](O)[C@](O)(C(=O)CO)[C@@]3(C)C[C@H](O)[C@@]12F
[11]
  inhibition: 94.1%

## O=c1c2cc(O)c(O)cc2oc2cc(O)c([C@@H]3O[C@H](CO)[C@@H](O)[C@H](O)[C@H]3O)c(O)c12
[12]
  Ratio IC50: 50

## c1nc(N2CCNCC2)c2sc3nc(N4CCOCC4)ccc3c2n1
[13]
  IC50: 690 nM
[14]
  IC50: 53 nM

## CC(C)=CC[C@]12Oc3cc(O)c([C@H]4C=C(C)C[C@H](c5ccc(O)cc5O)[C@H]4C(=O)c4ccc(O)cc4O)c(O)c3C(=O)[C@@]1(O)Oc1cc(O)ccc12
Beta-glucuronidase [3]
  IC50: 0.4 µM
[15]
  IC50: 330 nM
[16]
  inhibition: > 70%

## CNc1nc2sc3c(N4CCNCC4)nnnc3c2c2c1CCCC2
[13]
  IC50: 39 nM
[14]
  IC50: 180 nM

## O=C1CCCCCC/C=C/CCCCCCC1
[17]
  inhibition: 99%

## Oc1ccccc1-c1nc2cc(Cl)cc(Cl)c2[nH]1
[18]
  IC50: 4.48 µM
[19]
  IC50: 4.48 µM

## C1CCc2c(c(N3CCOCC3)nc3sc4c(N5CCNCC5)nnnc4c23)C1
[10]
  IC50: 120 nM

## CCCCC[C@H](O)CC(=O)CCc1ccc(O)c(OC)c1
[20]
  inhibition: 85%

## COc1ccc(-c2nc(O)c3ccccc3n2)cc1OC
[21]
  IC50: 1900 nM

## O=C(O)c1ccccc1O
[20]
  inhibition: 82%
[22]
  inhibition: 92.9%

## COc1ccc(C[C@@H]2CCC[C@@H]3[C@H](O)[C@@H](O)[C@H](CO)N23)cc1
[20]
  inhibition: < 50%
[23]
  Ratio IC50: 7

## O=C(O)[C@@H](O)[C@H]1OC(=O)[C@H](O)[C@H]1O [D-SACCHARIC ACID 1,4-LACTONE]
[5]
  IC50: 36.1 µM

## O=C(O)[C@@H]1[C@@H](O)[C@H](O)[C@@]2(O)CC[C@@H]1N2
[24]
  IC50: 0.06 µM
[25]
  IC50: 60 µM

## O=c1cc(-c2ccc(O)cc2O)oc2cc(O)cc(O)c12
[26]
  inhibition: 67.7%

## O=C(O)[C@@H]1[C@@H](O)[C@H](O)[C@@H](O)c2nccn21
[24]
  IC50: 12 µM
[2]
  Ki: 12 nM

## COc1ccc(-c2nnc(Nc3ccc(Cl)c(Cl)c3)s2)cc1
[25]
  IC50: 22.6 µM

## CC(=O)N[C@H]1[C@@H](O)[C@H](O)[C@H](CO)N[C@@H]1Cc1ccccc1
Beta-glucuronidase [3]
  IC50: 90.7 µM
[27]
  inhibition: 37.2%

## O=c1c(O)c(-c2ccc(O)c(O)c2)oc2cc(O)cc(O)c12 [QUERCETIN]
[5]
  IC50: 5.76 to 29.6 µM

## CC(C)=CCc1c(-c2ccc(O)cc2O)oc2c([C@H]3C=C(C)C[C@@H](c4ccc(O)cc4O)[C@@H]3C(=O)c3ccc(O)cc3O)c(O)cc(O)c2c1=O [KUMANON G]
Beta-glucuronidase [3]
  IC50: 1.6 µM
[15]
  IC50: 980 nM
[16]
  inhibition: > 70%

## O=C(O)[C@@H](O)[C@H](O)[C@H](O)[C@@H](O)C(=O)O
[17]
  inhibition: 99%

## C=C(C)C(O)CC/C(C)=C/Cc1c(O)cc(O)cc1-c1cc2ccc(O)cc2o1 (stereo unspecified)
[26]
  inhibition: 65.9%

## O=c1cc(-c2ccc(O)c(O)c2)oc2cc(O)cc(O)c12 [LUTEOLIN]
[5]
  IC50: 8.68 µM
[28]
  inhibition: 14.9%
[29]
  inhibition: 21.3%

## O=c1c(O)c(-c2ccc(O)cc2)oc2cc(O)cc(O)c12
[12]
  Ratio IC50: 76

## CCOc1ccccc1-c1nc2ccccc2c(=O)[nH]1
[21]
  IC50: 1900 nM
